In brackets after ≈: the same amount, converted by molar mass. Read-outs that look alike come from different tables or passages of the source.
Columns and labels:
[1] = Determination of solubility (HPLC); assay type: physicochemical; conditions: for solubility: 37 °C, thermodynamic from solid
Procedure: About 1.325 mg of Icaritin and the synthesized derivative were weighed and dissolved in 1.5 mL methanol respectively, then diluted with methanol into solutions of 10, 20, 50, 100, 150, 200, 500 μg/mL, and filtered over an organic-system filter head of 0.45 μm into sample bottles, obtaining the samples for test. Four parts of Icaritin and the synthesized derivative were weighed respectively, 1.00 mg for each part, and placed into 1.5 mL EP tubes, and 1 mL of water, normal saline, PBS, and 0.1% Tween 80 were respectively added thereto. The obtained solutions were ultrasonicated for 1 h, placed in a water bath at 37° C. overnight, and centrifuged at 10000 r/min for 3 min to collect supernatants. The supernatants were taken into sample bottles and detected by HPLC. The experiments were conducted in parallel for three times. The detection of HPLC is conducted under conditions of a chromatographic column of waters Symmetry C18, a mobile phase of a solution of methanol and water with a ratio of 80:20, a flow rate of 1.0 mL/min, a column temperature of 30° C., a detection wavelength of 210 nm, a run time of 30 min, and a sample load of 20 μL.

HepG2 hepatoma cells = test: Anti-tumor activity in vitro, MTT method, HepG2; assay type: cell-based, human; conditions: for IC50 compared with Icaritin, HepG2 72 h: HepG2, 72 h after administration
Procedure: (§1) The effects of Icaritin and its derivatives on the activities of HepG2 and SMMC7721 hepatoma cells were investigated by a MTT method. […] After reaction for 48, 7 2 h, each well was added with 20 μL 5 mg/mL, of MTT solution, and incubated in a cell incubator for 3-4 h. Then the liquid in the well plates was sucked to discard. Each well was added with 150 μL of dimethyl sulfoxide (DMSO), and shaken on an enzyme-labeled instrument for 30 s at ambient temperature so that the Formazan crystals were dissolved sufficiently. The absorbance value A of each well at 570 nm was detected by the enzyme-labeled instrument, and the experiment was repeated for 3 times.

SMMC7721 hepatoma cells = test: Anti-tumor activity in vitro, MTT method, SMMC7721; assay type: cell-based, human; conditions: for IC50 compared with Icaritin, SMMC7721 72 h: SMMC7721, 72 h after administration
Procedure: as §1

[2] = aqueous with cosolvent or surfactant or cyclodextrin
[3] = Homo sapiens, HepG2, 48 h, MTT, read-out: IC50 HepG2 48 h
[4] = Homo sapiens, HepG2, 72 h, MTT, read-out: IC50 HepG2 72 h
[5] = Homo sapiens, SMMC-7721, SMMC7721, 48 h, MTT, read-out: IC50 SMMC7721 48 h
[6] = Homo sapiens, SMMC-7721, SMMC7721, 72 h, MTT, read-out: IC50 SMMC7721 72 h
[7] = HepG2, 48 h, MTT, read-out: IC50 HepG2 48 h
[8] = HepG2, 72 h, MTT, read-out: IC50 HepG2 72 h
[9] = SMMC7721, 48 h, MTT, read-out: IC50 SMMC7721 48 h
[10] = SMMC7721, 72 h, MTT, read-out: IC50 SMMC7721 72 h

SMILES | solubility ([1]; aqueous buffer) [µg/mL] | solubility [1, 2] [µg/mL] | solubility ([1]; water) [µg/mL] | IC50 (HepG2 hepatoma cells; [3]) [µM] | IC50 (HepG2 hepatoma cells; [4]) [µM] | IC50 (SMMC7721 hepatoma cells; [5]) [µM] | IC50 (SMMC7721 hepatoma cells; [6]) [µM] | Solubility, 0.1% Tween 80 [1] | Solubility, Normal Saline [1] | Solubility, PBS [1] | Solubility, Water [1] | IC50 (HepG2 hepatoma cells; [7]) [µM] | IC50 (HepG2 hepatoma cells; [8]) [µM] | IC50 compared with Icaritin, HepG2 72 h (HepG2 hepatoma cells) | IC50 (SMMC7721 hepatoma cells; [9]) [µM] | IC50 (SMMC7721 hepatoma cells; [10]) [µM] | also measured
COc1ccc(-c2oc3c(CC=C(C)C)c(O)cc(O)c3c(=O)c2OC(=O)CCC(=O)OCc2cn([C@H]3O[C@@H](CO)[C@H](O)[C@@H](O)[C@@H]3O)nn2)cc1 [Compound 35] | 12 ± 1.02 (≈ 16.8 µM) | 12.1 ± 1.03 (≈ 17 µM) | 12 ± 1.23 (≈ 16.8 µM) | > 100 | > 100 | > 100 | > 100 |  |  |  |  |  |  |  |  |  | solubility compared with that of the bulk drug (Icaritin) [1]: improved effectively; solubility ([1]; saline or isotonic): 12.3 ± 1.31 µg/mL (≈ 17.3 µM)
COc1ccc(-c2oc3c(CC=C(C)C)c(O)cc(O)c3c(=O)c2OC(=O)CCC(=O)OCc2cn(CCOC3OC(CO)C(O)C(O)C3O)nn2)cc1 (stereo not drawn) [Compound 39] |  |  |  |  |  |  |  | 13.819 ± 1.323 µg/mL (≈ 18.3 µM) | 13.828 ± 1.123 µg/mL (≈ 18.3 µM) | 13.825 ± 0.937 µg/mL (≈ 18.3 µM) | 13.871 ± 1.031 µg/mL (≈ 18.4 µM) | > 100 | 5.56 ± 0.6 | less than that of Icaritin | > 100 | 6.65 ± 1.29 | solubility compared with that of the bulk drug (Icaritin) [1]: improved effectively; IC50 compared with Icaritin, SMMC7721 72 h (SMMC7721 hepatoma cells): less than that of Icaritin
COc1ccc(-c2oc3c(CC=C(C)C)c(O)cc(O)c3c(=O)c2OC(=O)CCC(=O)OCc2cn(CCOCCO[C@H]3O[C@@H](CO)[C@H](O)[C@@H](O)[C@@H]3O)nn2)cc1 [Compound 44] | 11 ± 1.04 (≈ 13.8 µM) | 11.2 ± 1.09 (≈ 14 µM) | 11.3 ± 0.831 (≈ 14.1 µM) | > 100 | 10.1 ± 0.32 | > 100 | > 100 |  |  |  |  |  |  | less than that of Icaritin |  |  | solubility compared with that of the bulk drug (Icaritin) [1]: improved effectively; solubility ([1]; saline or isotonic): 11 ± 1.03 µg/mL (≈ 13.8 µM)
COc1ccc(-c2oc3c(CC=C(C)C)c(O)cc(O)c3c(=O)c2OC(=O)CCC(=O)OCCOCCOCCOCCOCc2cn([C@H]3O[C@@H](CO)[C@H](O)[C@@H](O)[C@@H]3O)nn2)cc1 [Compound 50] | 4.53 ± 0.347 (≈ 5.11 µM) | 4.64 ± 1.27 (≈ 5.22 µM) | 4.55 ± 0.324 (≈ 5.13 µM) | 24.1 ± 3.06 | 25.3 ± 2.11 | > 100 | 46.5 ± 3.43 |  | Insoluble |  |  |  |  |  |  |  | 
COc1ccc(-c2oc3c(CC=C(C)C)c(O)cc(O)c3c(=O)c2OC(=O)CCC(=O)OCCOCCOCCOCc2cn(CCO[C@H]3O[C@@H](CO)[C@H](O)[C@@H](O)[C@@H]3O)nn2)cc1 [Compound 58] | 3.82 ± 0.874 (≈ 4.31 µM) | 3.89 ± 0.941 (≈ 4.38 µM) | 3.64 ± 0.374 (≈ 4.1 µM) | 19.7 ± 0.52 | 20 ± 2.12 | > 100 | 2.51 ± 0.72 |  |  |  |  |  |  |  |  |  | solubility ([1]; saline or isotonic): 3.68 ± 0.947 µg/mL (≈ 4.15 µM); IC50 compared with Icaritin, SMMC7721 72 h (SMMC7721 hepatoma cells): less than that of Icaritin
COc1ccc(-c2oc3c(CC=C(C)C)c(O)cc(O)c3c(=O)c2OC(=O)CCC(=O)OCCOCCOCc2cn([C@H]3O[C@@H](CO)[C@H](O)[C@@H](O)[C@@H]3O)nn2)cc1 [Compound 64] | 0.991 ± 0.314 (≈ 1.24 µM) | 1.08 ± 0.756 (≈ 1.35 µM) | 2.24 ± 0.941 (≈ 2.8 µM) | > 100 | 32.6 ± 3.12 | > 100 | > 100 |  | Insoluble |  |  |  |  |  |  |  | 
COc1ccc(-c2oc3c(CC=C(C)C)c(O)cc(O)c3c(=O)c2OC(=O)CCC(=O)OCCOCCOCc2cn(CCO[C@@H]3O[C@H](CO)[C@@H](O)[C@H](O)[C@H]3O)nn2)cc1 [Compound 65] |  |  |  | > 100 | 37.74 ± 0.2 | > 100 | > 100 | Insoluble | Insoluble | Insoluble | Insoluble |  |  |  |  |  | 
COc1ccc(-c2oc3c(CC=C(C)C)c(O)cc(O)c3c(=O)c2OC(=O)CCC(=O)OCCOCc2cn(C3O[C@H](CO)[C@@H](O)[C@H](O)[C@H]3O)nn2)cc1 (stereo partly drawn) [Compound 71] |  |  |  |  |  |  |  | Insoluble | Insoluble | Insoluble | Insoluble |  |  |  |  |  | IC50 (HepG2 hepatoma cells; Homo sapiens, HepG2, 48 h, read-out: IC50 HepG2 48 h): > 100 µM; IC50 (HepG2 hepatoma cells; Homo sapiens, HepG2, 72 h, read-out: IC50 HepG2 72 h): > 100 µM; IC50 (SMMC7721 hepatoma cells; Homo sapiens, SMMC-7721, 48 h, read-out: IC50 SMMC7721 48 h): > 100 µM; IC50 (SMMC7721 hepatoma cells; Homo sapiens, SMMC-7721, 72 h, read-out: IC50 SMMC7721 72 h): 29.7 ± 1.23 µM
COc1ccc(-c2oc3c(CC=C(C)C)c(O)cc(O)c3c(=O)c2OC(=O)CCC(=O)OCCOCc2cn(CCOC3OC(CO)C(O)C(O)C3O)nn2)cc1 (stereo not drawn) [Compound 72] |  |  |  |  |  |  |  | 5.697 ± 1.312 µg/mL (≈ 7.12 µM) | 5.673 ± 1.031 µg/mL (≈ 7.09 µM) | 5.656 ± 1.131 µg/mL (≈ 7.07 µM) | 5.852 ± 0.748 µg/mL (≈ 7.32 µM) | > 100 | > 100 |  | > 100 | > 100 | 
COc1ccc(-c2oc3c(CC=C(C)C)c(O)cc(O)c3c(=O)c2OC(=O)CCC(=O)OCCOCc2cn(CCOCCOC3OC(CO)C(O)C(O)C3O)nn2)cc1 (stereo not drawn) [Compound 73] |  |  |  |  |  |  |  | Insoluble | Insoluble | Insoluble | Insoluble | 43.2 ± 1.21 | 36.8 ± 0.65 |  | > 100 | 37.2 ± 1.36 | 
COc1ccc(-c2oc3c(CC=C(C)C)c(O)cc(O)c3c(=O)c2OC(=O)CCC(=O)NCCCCCOCc2cn(C3O[C@H](CO)[C@@H](O)[C@H](O)[C@H]3O)nn2)cc1 (stereo partly drawn) [Compound 81] |  |  |  | > 100 | 12 ± 1.23 | > 100 | 22.2 ± 1.45 | Insoluble | Insoluble | Insoluble | Insoluble |  |  | less than that of Icaritin |  |  | 
COc1ccc(-c2oc3c(CC=C(C)C)c(O)cc(O)c3c(=O)c2OC(=O)CCC(=O)OCCCCOCc2cn(C3OC(CO)C(O)C(O)C3O)nn2)cc1 (stereo not drawn) [Compound 87] |  |  |  |  |  |  |  |  |  |  |  | > 100 | 7.03 ± 0.67 | less than that of Icaritin | > 100 | 12.7 ± 1.02 | Solubility, 0.1% Tween 80 ([1]; 0.1% Tween 80, 37° C. overnight, n = 3): 1.358 ± 0.235 µg/mL (≈ 1.73 µM); Solubility, PBS ([1]; PBS, 37° C. overnight, n = 3): Insoluble; Solubility, Normal Saline ([1]; normal saline, 37° C. overnight, n = 3): 1.386 ± 0.743 µg/mL (≈ 1.77 µM); Solubility, Water ([1]; water, 37° C. overnight, n = 3): 1.277 ± 0.836 µg/mL (≈ 1.63 µM); IC50 compared with Icaritin, SMMC7721 72 h (SMMC7721 hepatoma cells): less than that of Icaritin
COc1ccc(-c2oc3c(CC=C(C)C)c(O)cc(O)c3c(=O)c2OC(=O)CCC(=O)OCCCCOCc2cn(CCOC3OC(CO)C(O)C(O)C3O)nn2)cc1 (stereo not drawn) [Compound 88] |  |  |  |  |  |  |  | 8.384 ± 1.363 µg/mL (≈ 10.1 µM) | 7.399 ± 0.384 µg/mL (≈ 8.94 µM) | Insoluble | 7.597 ± 1.038 µg/mL (≈ 9.18 µM) | > 100 | > 100 |  | > 100 | 40.5 ± 1.56 | 

Reference: patent publication US20240067672A1, “FLAVONE DERIVATIVE FOR TREATING TUMORS AND USE THEREOF” (SICHUAN FUSHENGYUAN TECHNOLOGY CO., LTD, priority 2019, published 2024)
